Calls of active or inactive are those of the source.
Legend:
[1] = viability of uninfected HEp-2 cells – cell-based, HTS, cytotoxicity control for RSV inhibitor project, dose response (AID 2410); assay type: functional; settings: human respiratory syncytial virus
Caspase-3 = biological target: T1, Caspase-3 (Homo sapiens, UniProt P42574); assay type: functional;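 note: Dose-response selectivity test against caspase-3 for candidate inhibitors of sentrin-specific proteases (SENPs)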
T1 sequence (P42574 whole entry): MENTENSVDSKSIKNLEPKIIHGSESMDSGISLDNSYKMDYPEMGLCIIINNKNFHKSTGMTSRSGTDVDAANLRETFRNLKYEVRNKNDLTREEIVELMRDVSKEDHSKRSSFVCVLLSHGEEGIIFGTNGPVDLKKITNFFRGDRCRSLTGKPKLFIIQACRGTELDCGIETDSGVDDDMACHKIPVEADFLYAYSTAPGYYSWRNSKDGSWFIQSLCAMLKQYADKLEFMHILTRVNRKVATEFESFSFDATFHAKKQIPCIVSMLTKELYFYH

[2] = biological target: T2, Sentrin-specific protease 6 (Homo sapiens, UniProt Q9GZR1); assay type: functional;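 note: Luminescence-based dose-response confirmatory assay of SENP6 inhibition, following up an ultra-high-throughput screen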
T2 sequence (Q9GZR1 whole entry): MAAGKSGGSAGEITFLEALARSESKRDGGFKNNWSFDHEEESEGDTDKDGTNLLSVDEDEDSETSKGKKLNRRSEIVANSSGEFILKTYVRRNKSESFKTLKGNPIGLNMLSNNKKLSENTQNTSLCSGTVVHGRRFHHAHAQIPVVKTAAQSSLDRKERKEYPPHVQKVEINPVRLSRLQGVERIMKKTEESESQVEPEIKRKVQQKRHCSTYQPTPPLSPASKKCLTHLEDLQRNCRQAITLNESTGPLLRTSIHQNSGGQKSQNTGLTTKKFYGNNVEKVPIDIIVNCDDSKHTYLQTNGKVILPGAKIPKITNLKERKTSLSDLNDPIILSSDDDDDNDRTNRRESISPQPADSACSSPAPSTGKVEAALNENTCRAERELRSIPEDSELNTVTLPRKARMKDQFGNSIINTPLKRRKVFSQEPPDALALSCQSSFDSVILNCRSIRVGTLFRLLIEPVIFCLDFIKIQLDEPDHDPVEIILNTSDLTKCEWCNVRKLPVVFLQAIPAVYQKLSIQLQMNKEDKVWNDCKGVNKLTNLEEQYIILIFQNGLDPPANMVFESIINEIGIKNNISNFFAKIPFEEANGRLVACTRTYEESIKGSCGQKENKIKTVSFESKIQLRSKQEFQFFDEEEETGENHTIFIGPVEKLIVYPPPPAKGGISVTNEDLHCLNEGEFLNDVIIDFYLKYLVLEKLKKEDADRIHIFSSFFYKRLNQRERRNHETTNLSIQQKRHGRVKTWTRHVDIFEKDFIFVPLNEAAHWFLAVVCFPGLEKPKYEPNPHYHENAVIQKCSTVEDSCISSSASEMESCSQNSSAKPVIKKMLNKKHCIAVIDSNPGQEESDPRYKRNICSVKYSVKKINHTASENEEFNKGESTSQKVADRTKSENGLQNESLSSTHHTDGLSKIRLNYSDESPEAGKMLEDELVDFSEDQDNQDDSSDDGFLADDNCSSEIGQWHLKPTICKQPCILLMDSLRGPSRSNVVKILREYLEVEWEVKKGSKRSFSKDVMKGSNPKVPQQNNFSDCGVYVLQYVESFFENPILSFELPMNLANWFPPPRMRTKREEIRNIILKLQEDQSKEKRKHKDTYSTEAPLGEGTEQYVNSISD

[3] = biological target: T3, Sentrin-specific protease 8 (Homo sapiens, UniProt Q96LD8); assay type: functional;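 note: luminescence read-out of SENP8 inhibition, dose-response confirmation following an ultra-high-throughput screen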
T3 sequence (Q96LD8 whole entry): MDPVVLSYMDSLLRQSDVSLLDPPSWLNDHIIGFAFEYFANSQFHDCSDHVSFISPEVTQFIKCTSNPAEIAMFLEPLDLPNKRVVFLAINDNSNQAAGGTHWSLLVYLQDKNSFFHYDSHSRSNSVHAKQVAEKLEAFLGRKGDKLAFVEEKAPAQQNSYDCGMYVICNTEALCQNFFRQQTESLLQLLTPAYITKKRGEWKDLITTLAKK

Protein RecA = biological target: T4, Protein RecA (Mycobacterium tuberculosis, UniProt P9WHJ3); assay: Fluorescence Cell-Free Homogeneous Dose Retest to Identify Inhibitors of RecA-Intein Splicing Activity. [Related pubchem assays (depositor defined):AID2097, AID2223, AID489010, AID492950]; assay type: functional
T4 sequence (P9WHJ3 whole entry): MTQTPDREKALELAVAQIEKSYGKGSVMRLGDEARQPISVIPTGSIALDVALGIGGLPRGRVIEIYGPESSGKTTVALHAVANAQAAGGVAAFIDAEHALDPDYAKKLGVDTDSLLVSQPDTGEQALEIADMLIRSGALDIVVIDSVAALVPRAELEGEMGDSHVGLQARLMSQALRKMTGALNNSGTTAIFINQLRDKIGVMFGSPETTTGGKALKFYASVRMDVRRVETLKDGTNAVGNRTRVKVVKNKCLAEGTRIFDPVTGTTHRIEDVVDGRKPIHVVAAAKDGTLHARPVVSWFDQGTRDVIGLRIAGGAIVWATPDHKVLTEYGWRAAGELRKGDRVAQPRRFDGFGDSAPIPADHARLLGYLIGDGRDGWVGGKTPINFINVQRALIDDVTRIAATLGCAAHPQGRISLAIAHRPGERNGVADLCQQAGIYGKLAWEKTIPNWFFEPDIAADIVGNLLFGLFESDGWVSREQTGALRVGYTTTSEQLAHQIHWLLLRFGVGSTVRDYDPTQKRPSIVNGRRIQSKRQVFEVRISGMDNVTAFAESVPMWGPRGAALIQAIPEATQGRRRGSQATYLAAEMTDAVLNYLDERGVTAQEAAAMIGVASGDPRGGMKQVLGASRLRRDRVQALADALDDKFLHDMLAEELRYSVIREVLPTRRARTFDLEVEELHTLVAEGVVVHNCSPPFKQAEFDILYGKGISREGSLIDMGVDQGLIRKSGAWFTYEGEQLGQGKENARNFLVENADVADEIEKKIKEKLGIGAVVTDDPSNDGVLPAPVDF

Streptokinase A = biological target: T5, Streptokinase A (Streptococcus pyogenes serotype M1, UniProt P10520); assay: viability-normalized secreted streptokinase activity reduction – plasminogen activation absorbance, OD405, dose response (AID 1914); assay type: functional, Streptococcus pyogenes M1 GAS;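 note: secreted streptokinase activity via plasminogen activation per viability signal from cell pellet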
T5 sequence (P10520 whole entry): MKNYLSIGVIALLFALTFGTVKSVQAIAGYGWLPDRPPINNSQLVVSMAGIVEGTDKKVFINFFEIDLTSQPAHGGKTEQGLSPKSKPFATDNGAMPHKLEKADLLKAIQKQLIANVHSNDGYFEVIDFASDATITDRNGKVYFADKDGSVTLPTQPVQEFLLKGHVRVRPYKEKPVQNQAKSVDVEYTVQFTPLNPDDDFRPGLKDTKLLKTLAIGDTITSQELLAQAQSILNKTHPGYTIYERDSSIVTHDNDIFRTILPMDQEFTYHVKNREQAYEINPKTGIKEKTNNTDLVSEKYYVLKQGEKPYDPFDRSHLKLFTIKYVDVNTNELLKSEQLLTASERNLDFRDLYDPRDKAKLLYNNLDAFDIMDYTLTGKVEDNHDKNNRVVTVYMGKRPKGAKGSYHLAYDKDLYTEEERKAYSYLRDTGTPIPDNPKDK

| SMILES | CC50 [1] | IC50 (Caspase-3) | IC50 [2] | IC50 [3] | EC50 (Protein RecA) | EC50 (Streptokinase A) |
| --- | --- | --- | --- | --- | --- | --- |
| NC(=O)C1CCN(C2=C(Cl)C(=O)c3ccccc3C2=O)CC1 | 7.88 µM (active) | 7.35 µM (active) | 5.84 µM (active) | 8.88 µM (active) | 0.146 µM (active) | – |
| O=C(O)c1ccc(N/N=C/c2ccc(OC(=O)c3ccccc3Cl)cc2)cc1 | – | 14.8 µM (active) | 2.16 µM (active) | 2.05 µM (active) | – | > 150 µM (not active) |
| O=c1c2ccccc2nc(/C=C/c2cccnc2)n1Cc1ccccc1 | – | – | – | – | 9.92 µM (active) | – |
